≈ marks a conversion by molar mass, not a printed value. Entries after “also recorded” stand apart in the source; their conditions may differ.
Key:
[1] = Dynamic vapor sorption (DVS) test; assay type: physicochemical
[2] = Solubility tests in biological media of SGF, FaSSIF and FeSSIF; assay type: physicochemical
Procedure: The instrument used for liquid chromatography analysis was Agilent HPLC 1260 series, and the analytical method is shown in the table below.
The results of solubility tests of crystal forms I, III, and V in biological media of SGF, FaSSIF, and FeSSF are as shown in Table E and FIG. 43. There was little difference in the solubility of the above three crystal forms in different biological media, and the solubility in SGF was higher than 5 mg/mL.

[3] = Crystal form (XRPD) in preparation process of coated tablets; assay type: physicochemical; details: samples at stages of wet granulation and tabletting; listed as API
Excerpt: In order to investigate the impact of the preparation process of the preparation on the crystal form, samples were taken at different stages during the preparation process of the coated tablets according to Example 17.3 and analyzed. The analysis results are shown in Table I. The summarized results of the XRPD patterns of the products at each time point for sampling are shown in FIG. 52.
The investigation results are shown in Table J. The XRPD results of the crystal form of the coated tablet, API, and the blank excipient are shown in FIG. 53.

[4] = Crystal form transformation under humidity / drying (XRPD); assay type: physicochemical; details: humidity or drying as stated in the value
Excerpt: Crystal form I can be obtained by the preparation method in Example 3. […] (FIG. 29). Combined with the DVS test results (FIG. 30), it can be seen that the mutual transformation between crystal forms I and IV is reversible.
Crystal form IV is a hygroscopic product of crystal form I under high humidity environment, and can be obtained by slurrying crystal form I or crystal form V in a mixed solvent of water/acetone with a water content of 50% to 95%.
Crystal form VI was obtained by slurrying crystal form I or crystal form V at 60° C. in a mixed solvent of water/acetone with a water content of 10% (volume ratio) at 60° C.
Crystal form VIII is a hydrate, but the hydrate is unstable.

[5] = Pharmacokinetic experiments in Beagles; assay type: in vivo; details: Beagle, male, PO, 10 mg/kg, plasma
Procedure: The present disclosure preferred crystal forms I, III, and V of the compound in the above examples for pharmacokinetic experiments in Beagles, and the relevant experiments are as follows:
Animal: 9 Beagles, male, divided into three groups with 3 in each group, weight ranging from 10 to 13 kg (source & certificate number: Beijing Marshall Biotechnology Co., Ltd., No. 1103182011000161)
Administration mode and dosage: PO: 10 mg/kg
Preparation: 0.5% CMC-Na was used as the solvent, and 400 mg of each of the three different crystal forms of compound A were weighed and added to the corresponding 79 mL of solvent, respectively. The mixture was subjected to ultrasonication for 20 minutes, added with a stirrer, and mixed thoroughly for 3 hours (the storage period from compound preparation to animal administration at room temperature was less than 6 hours). After the drug solution became a homogeneous and fine suspension, which was observed by the naked eye, the solvent was gradually added until the specified volume reached the target concentration. The preparation was stirred for 10 minutes at room temperature before administration, and stirred continuously during administration.
Time points for sampling: the time points for blood sampling in the PO group were 0.167, 0.5, 1, 2, 4, 6, 8, and 24 hours.
Animals in the PO group were fasted overnight except for free access to water before administration, and resumed food supply 4 hours after administration.
After Beagles in the […] were administered, blood was collected from Beagles by jugular vein puncture according to the time points for sampling. About 1.0 mL of blood was collected at each time point and transferred to an anticoagulant EP tube (containing 10 μL of EDTA-K2, 375 mg/mL). The tube was gently inverted three times, stored in an ice box (no more than 30 minutes), and centrifuged at 3200 g for 10 minutes at 4° C. The plasma was transferred to an ultra-low temperature refrigerator and stored until detection.
Sample pretreatment process: 40 μL of sample was taken, and 160 μL of acetonitrile solution containing 0.1% FA and 200 ng/mL of mixed standard solution was added to precipitate the protein. The mixture was vortexed and mixed well, and the sample was centrifuged in a 4° C. centrifuge at 13000 pm for 10 minutes. 100 μL of the supernatant was transferred to another 96 deep well plate, then 100 μL of methanol:water (1:3, v:v) solution containing 0.1% FA was added thereto, and the mixture was shaken and mixed for 10 minutes.
• Ion source: ion electrospray (ESI) • Ionization mode: positive ion mode (Positive) • Detection mode (mode): multiple reaction monitoring (MRM) • Ion spray voltage: 5500 V • Ion spray temperature (turbo ion spray temp): 550° C. • Curtain gas type: nitrogen setting: 35 • Collision cell gas type (CAD gas type): nitrogen setting: medium • Nebulizing gas type (gas 1): nitrogen setting: 55.00 • Auxiliary gas type (gas 2): nitrogen setting: 55.00
• Chromatographic column: poroshell 120 EC-C18 (4.6×50 mm, 2.7 μm) • Mobile phase A: 0.1% formic acid aqueous solution • Mobile phase B: a solution of 0.1% formic acid in methanol • Auto sampler wash solution (rinse port wash solution): 50% methanol • Column temperature: 40° C. • Flow rate: 0.55 mL/min • Auto sampler temperature (sample tray temp): 10° C. • Injection volume: 3 μL • Lift of presser foot (needle stroke): 49 mm • Auto sampler rinse setting (rinse pump setting): rinse port only • Auto sampler rinse mode (rinse mode): before aspiration • Auto sampler rinse volume for needle (rinse volume): 500 μL • Dip time when rinsing the injection needle (rinse dip time): 2 seconds
The data would be analyzed using WinNonlin (version 5.2.1 Pharsight, Mountain View, CA) through a non-compartmental model to obtain PK parameters (selecting Cmax, Tmax, AUClast, T1/2, and other parameters according to different routes of administration).

[6] = Variable humidity XRPD (VH-XRPD) of crystal form III; assay type: physicochemical
Excerpt: The instrument parameters are as follows:
The humidity change program settings are as follows: […]

[7] = Physical and chemical stability of crystal forms at 60° C. (closed) and 40° C./75% RH (open); assay type: physicochemical
Procedure: The physical and chemical stability of crystal forms I, III, and V at 60° C. (closed) and 40° C./75% RH (open) for 7 days were investigated respectively.
(closed) and 40° C./75% RH (open) for 3 months were investigated.

- DVS hygroscopicity [1]: slightly hygroscopic
- XRPD before and after the DVS test [1]: no significant change in XRPD
- DVS (wt %, 80% RH) ([1]; 25° C., 80% RH): 2.7 wt %
- DVS (wt %, 90% RH) ([1]; 25° C., 90% RH): 2.8 wt %
- adsorbed water content ([1]; range of 10 to 80% RH): about 1.2%
- XRPD of remaining solid ([2]; FaSSIF, 0.5 h): Unchanged
- pH ([2]; FaSSIF, 0.5 h): 6.4
- XRPD of remaining solid ([2]; FaSSIF, 2 h): Unchanged
- pH ([2]; FaSSIF, 2 h): 6.4
- XRPD of remaining solid ([2]; FaSSIF, 24 h): Unchanged
- pH ([2]; FaSSIF, 24 h): 6.4
- XRPD of remaining solid ([2]; FeSSIF, 0.5 h): Unchanged
- pH ([2]; FeSSIF, 0.5 h): 4.9
- Solubility ([2]; FeSSIF, 2 h): 88 µg/mL (≈ 176 µM)
- XRPD of remaining solid ([2]; FeSSIF, 2 h): Unchanged
- pH ([2]; FeSSIF, 2 h): 4.8
- Solubility ([2]; FeSSIF, 24 h): 120 µg/mL (≈ 240 µM)
- XRPD of remaining solid ([2]; FeSSIF, 24 h): Unchanged
- pH ([2]; FeSSIF, 24 h): 4.9
- pH ([2]; SGF, 0.5 h): 1.0
- solubility at 0.5 h ([2]; simulated gastric fluid, thermodynamic from solid, SGF, 0.5 h, visual observation): > 5000 µg/mL
- AUClast [5]: 14454 ± 3182 ng·h/mL
- Cmax [5]: 1159 ± 160 ng/mL
- T1/2 [5]: 12.9 ± 1.06 h
- Tmax [5]: 2.00 ± 0.00 h
- water content at which crystal form III is stable ([6]; from DVS at 40% RH and TGA): above 1.6%
- XRPD results ([6]; procedure 6: 0% RH, 720 minutes): Anhydrous crystal form X
- XRPD results ([6]; procedure 7: 0% RH, 900 minutes): Anhydrous crystal form X
- XRPD results ([6]; procedure 10: 40% RH, 120 minutes): Crystal form III
- XRPD results ([6]; procedure 11 (end): 40% RH, 240 minutes): Crystal form III
- Purity - 7 days (peak area %) ([7]; 40° C./75% RH (open)): 99.35 peak area %
- Purity - 1 month (peak area %) ([7]; 40° C./75% RH): 99.29 peak area %
- Purity - 3 months (peak area %) ([7]; 40° C./75% RH): 99.23 peak area %
- XRPD - 3 months ([7]; 40° C./75% RH): Crystal form III
- Purity - 7 days (peak area %) ([7]; 60° C. (closed)): 99.35 peak area %
- Purity - 1 month (peak area %) ([7]; 60° C.): 99.28 peak area %
- Purity - 3 months (peak area %) ([7]; 60° C.): 99.25 peak area %
- XRPD - 3 months ([7]; 60° C.): Crystal form III
- Initial purity (peak area %) [7]: 99.34 peak area %
- Initial purity (peak area %) ([7]; listed as crystal form III): 99.33 peak area %
Compound: COC(=O)N1CCO[C@@H](Cc2c(-c3c(F)cc(S(N)(=O)=O)cc3F)nc3cc(Cl)ccn23)C1 [Crystal form III, methyl (S)-2-((7-chloro-2-(2,6-difluoro-4-sulfamoylphenyl)imidazo[1,2-a]pyridin-3-yl)methyl)morpholine-4-carboxylate]
- Crystal form in preparation process [3]: remained stable; also recorded: Crystal form III
- crystal form transformation [4]: quickly absorbed moisture under ambient humidity and became crystal form III again
- crystal form at 0% RH ([6]; cycle of 40% RH-0% RH-40% RH at 25° C.): completely dehydrated at 0% RH and transformed into a new crystal form, anhydrous crystal form X

Reference: patent US20240293420A1, “PHARMACEUTICAL COMPOSITION, PREPARATION, AND PREPARATION METHOD THEREFOR AND USE THEREOF” (WUHAN LL SCIENCE AND TECHNOLOGY DEVELOPMENT CO., LTD., priority 2021, published 2024)
